Laboratory results taken from paper PMC11187126, “Structure and dynamics of the pyroglutamylated RF-amide peptide QRFP receptor GPR103” (Nature Communications, 2024).
Like-named read-outs stand apart in the source and are kept apart here. No end group written: not given here.

Biological target: T1, GPR103 V129^3.36A (Homo sapiens, UniProt Q96P65, V129A)
T1 construct: we used human full-length QRFPR-encoding plasmids; expressed in transfected cells; host or cells: HEK293 cells, pCAGGS vector
T1 sequence (Q96P65 1-431 V129A): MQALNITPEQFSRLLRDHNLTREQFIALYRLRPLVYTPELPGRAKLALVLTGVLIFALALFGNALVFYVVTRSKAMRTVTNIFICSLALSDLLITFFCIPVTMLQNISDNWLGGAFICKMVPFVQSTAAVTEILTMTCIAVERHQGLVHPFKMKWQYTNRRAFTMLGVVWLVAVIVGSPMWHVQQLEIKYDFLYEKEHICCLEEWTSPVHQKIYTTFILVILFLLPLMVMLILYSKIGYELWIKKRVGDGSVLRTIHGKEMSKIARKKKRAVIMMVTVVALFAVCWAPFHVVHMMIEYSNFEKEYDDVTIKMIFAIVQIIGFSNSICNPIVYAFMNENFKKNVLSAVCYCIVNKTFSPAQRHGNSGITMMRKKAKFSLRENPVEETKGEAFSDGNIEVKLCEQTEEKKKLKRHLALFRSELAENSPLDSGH
Assay: TGFα shedding assay; Exp. level WT (1:20)
Type: cell-based
Experimental: For the TGFα shedding assay and the flow cytometry analysis, we used human full-length QRFPR-encoding plasmids. Specifically, GPR103 was N-terminally modified with an HA signal sequence followed by a FLAG epitope and then a flexible linker ([…]; the FLAG epitope is underlined) and inserted into the pCAGGS vector. Plasmid encoding GPR103 mutants were generated using Quickchange Site-Directed Mutagensis kit (Agilent).
The TGFα shedding assay was performed as described previously with minor modifications. Plasmid transfection was performed in a 6-well plate with a mixture of 500 ng (per well in a 6-well plate) AP-TGFα-encoding plasmid and 200 ng GPR103-encoding plasmid. After 1-day culture, the transfected cells were harvested by trypsinization, pelleted by centrifugation at 190 × g for 5 min, and washed once with 5 mM HEPES (pH 7.4)-containing Hank’s Balanced Salt Solution (HBSS). After centrifugation, the cells were resuspended in 8 mL of the HEPES-containing HBSS. The cell suspension was seeded in a 96-well culture plate (cell plate) at a volume of 90 μL (per well hereafter) and incubated in a 37 °C incubator with 5% CO2 for 30 min. […] After spinning the cell plates at 190 × g for 2 min, 80 μL of conditioned media was transferred to an empty 96-well plate (conditioned media (CM) plate). Then, 80 μL of AP reaction solution (10 mM p-nitrophenylphosphate (p-NPP), 120 mM Tris-HCl (pH 9.5), 40 mM NaCl, and 10 mM MgCl2) was dispensed into the cell plates and the CM plates. Absorbance at 405 nm of the plates was measured using a microplate reader (SpectraMax 340 PC384, Molecular Devices) before and after 1-h incubation at room temperature. Ligand-induced AP-TGFα release was calculated by subtracting spontaneous AP-TGFα release signal from ligand-induced AP-TGFα release signal. The AP-TGFα release signals were fitted to a four-parameter sigmoidal concentration–response curve, using the Prism 10 software (GraphPad Prism). For each replicate experiment, the pEC50 parameter (negative logarithmic values of EC50 values) of the individual GPR103 mutants were normalized to that of the wild-type GPR103 performed in parallel, and resulting ∆pEC50 values were used to denote ligand response activity of the mutants. […]
Exp. le vel: WT (1:5 0)Exp. le vel: WT (1:5 0)Exp. le vel: WT (1:5 0)Exp. le vel: WT (1:2 0)Exp. le vel: WT (1:2 0)Exp. le vel: WT (1:1 0) […]
L1 4N - t e r mA F2 5N - t e r mA I 2 6N - t e r mA Y 2 9N - t e r mA C 9 82 .5 7A T10 22 .6 1A Exp . l eve l: WT (1 :5)Exp . l evel : >WT (1 :1)Exp. le vel: WT (1:2 0)Exp. le vel: WT (1:2 0)Exp. le vel: WT (1:5 0)Exp . l eve l: WT (1 :1) […]
Exp. le vel: WT (1:1 0)Exp. le vel: WT (1:2 0) C 1 1 83 .2 5AExp. le vel: WT (1:5 0)Exp. le vel: WT (1:5 0)Exp. le vel: WT (1:2 0)Exp . l eve l: WT (1 :5) […]
Exp. le vel: WT (1:5 0)Exp. le vel: WT (1:1 0)Exp. le vel: WT (1:5 0) E203ECL2AExp . l evel : >WT (1 :1)Exp. le vel: WT (1:5 0)Exp. le vel: WT (1:5 0) […]
Exp . l eve l: WT (1 :1) F28Exp. le vel: WT (1:5 0) C 2 8 56 .4 7AExp. le vel: WT (1:2 0) WExp. le vel: WT (1:2 0) F28Exp. le vel: WT (1:5 0)Exp . l evel : >WT (1 :1) […]
Exp. le vel: WT (1:5 0)Exp. le vel: WT (1:5 0) C 3 2 77 .4 8AExp . l eve l: WT (1 :5)Exp . l evel : >WT (1 :1)Exp . l evel : >WT (1 :1) […]
Suppl eme nt ary Figure 1 | Mutational analysis of GPR103. […]
mutants. Data are presented as mean values ± SEM, normally n=3-5; dots), each performed in triplicate. b-d Cell-surface expression (b) and QRFP26-in-duced activation of GPR103 (c, d) were analyzed by the flow cytometry and the TGFα shedding assay, respectively. From the concentration–response curves (a), Emax (c) and ΔpEC50 (d) values relative to the wild type were calculated. Colors in the mutant bars indicate an expression level matching to that of titrated wild type. Statistical analyses were performed using the ordinary one-way ANOVA followed by Dunnett tests with the expression-matched […]

Emax (Exp. #1): 92.74 % WT | Emax (Exp. #2): 87.58 % WT | Emax (Exp. #3): 97.49 % WT | Emax (mean, read-out: Emax): 92.6% | EC50 (n = 3): 135 nM | Emax (n = 3, read-out: Emax): 96.2 ± 2.3%
Substance: TSGPLGNLAEELNGYSRKKGGFSFRF-NH2 [QRFP26]
